Where “and” joins values, the source holds several entries; their conditions need not be identical. Equal entries are not always repeated. Toxic doses and inconclusive results are not listed. Cut-off read from the data, not from the text of the source: active = T/C of 150% or more; inactive = T/C below 125%.
Test system: L1210 leukemia ip in BDF1 mice, survival T/C
Test: NCI In Vivo Anticancer Drug Screen. Data for tumor model L1210 Leukemia (intraperitoneal) in B6D2F1 (BDF1) mice
Settings: endpoint: mean survival time, higher = longer survival
In short: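 Survival endpoint. Drug-treated group vs vehicle group, expressed as T divided by C. Tumor passaged by transplantation.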

[1] = dose: 100.0 mg/kg/injection, schedule: Q01DX009 (ip), vehicle: saline
[2] = dose: 200.0 mg/kg/injection, schedule: Q01DX009 (ip), vehicle: saline
[3] = dose: 400.0 mg/kg/injection, schedule: Q01DX009 (ip), vehicle: saline
[4] = dose: 100.0 mg/kg/injection, schedule: Q04DX003 (ip), vehicle: Klucel (hydroxypropylcellulose) (HPC)
[5] = dose: 200.0 mg/kg/injection, schedule: Q04DX003 (ip), vehicle: Klucel (hydroxypropylcellulose) (HPC)
[6] = dose: 400.0 mg/kg/injection, schedule: Q04DX003 (ip), vehicle: Klucel (hydroxypropylcellulose) (HPC)
[7] = dose: 100.0 mg/kg/injection, schedule: Q01DX009 (ip), vehicle: saline with Tween-80
[8] = dose: 100.0 mg/kg/injection, schedule: Q04DX003 (ip), vehicle: saline with Tween-80
[9] = dose: 200.0 mg/kg/injection, schedule: Q01DX009 (ip), vehicle: saline with Tween-80
[10] = dose: 100.0 mg/kg/injection, schedule: Q04DX003 (ip), vehicle: saline
[11] = dose: 200.0 mg/kg/injection, schedule: Q04DX003 (ip), vehicle: saline
[12] = dose: 400.0 mg/kg/injection, schedule: Q04DX003 (ip), vehicle: saline
[13] = dose: 100.0 mg/kg/injection, schedule: Q01DX001 (ip), vehicle: carboxymethylcellulose (CMC)
[14] = dose: 200.0 mg/kg/injection, schedule: Q01DX001 (ip), vehicle: carboxymethylcellulose (CMC)
[15] = dose: 400.0 mg/kg/injection, schedule: Q01DX001 (ip), vehicle: carboxymethylcellulose (CMC)
[16] = dose: 50.0 mg/kg/injection, schedule: Q01DX009 (ip), vehicle: saline
[17] = dose: 100.0 mg/kg/injection, schedule: Q01DX001 (ip), vehicle: Klucel (hydroxypropylcellulose) (HPC)
[18] = dose: 200.0 mg/kg/injection, schedule: Q01DX001 (ip), vehicle: Klucel (hydroxypropylcellulose) (HPC)
[19] = dose: 400.0 mg/kg/injection, schedule: Q01DX001 (ip), vehicle: Klucel (hydroxypropylcellulose) (HPC)
[20] = dose: 50.0 mg/kg/injection, schedule: Q01DX001 (ip), vehicle: saline
[21] = dose: 100.0 mg/kg/injection, schedule: Q01DX001 (ip), vehicle: saline
[22] = dose: 200.0 mg/kg/injection, schedule: Q01DX001 (ip), vehicle: saline
[23] = dose: 400.0 mg/kg/injection, schedule: Q01DX001 (ip), vehicle: saline
[24] = dose: 100.0 mg/kg/injection, schedule: Q01DX009 (ip), vehicle: Klucel (hydroxypropylcellulose) (HPC)
[25] = dose: 25.0 mg/kg/injection, schedule: Q01DX009 (ip), vehicle: Klucel (hydroxypropylcellulose) (HPC)

Measured: T/C

CC(C)P(=O)(CC(=O)O)c1ccccc1 (configuration not stated)
inactive: dose: 100.0 mg/kg/injection, schedule: Q04DX002 (ip), vehicle: saline with Tween-80 100 % of control | dose: 400.0 mg/kg/injection, schedule: Q04DX002 (ip), vehicle: saline with Tween-80 97 % of control

Cc1ccc(NCCN2CCCCC2)c2c(=O)c3ccccc3sc12
inactive: [1] 110 % of control | [2] 96 % of control | [3] 107 % of control

CCCCCCC/C=N/NC(=O)c1ccccc1
inactive: [4] 105 % of control | [5] 109 % of control | [6] 98 % of control

CC(=O)CCCN1C(=O)c2ccccc2C1=O
inactive: [7] 106 % of control | [8] 101 % of control | [9] 96 % of control | dose: 200.0 mg/kg/injection, schedule: Q04DX003 (ip), vehicle: saline with Tween-80 91 % of control | dose: 400.0 mg/kg/injection, schedule: Q01DX009 (ip), vehicle: saline with Tween-80 93 % of control | dose: 400.0 mg/kg/injection, schedule: Q04DX003 (ip), vehicle: saline with Tween-80 102 % of control

CCCNc1ncc(C(=O)O)c(=O)[nH]1
inactive: [8] 93 % of control

COC(OC)OC
inactive: [1] 104 % of control | [10] 100 % of control | [2] 101 % of control | [11] 105 % of control | [3] 100 % of control | [12] 105 % of control

COc1ccc(N2CCN(c3c(N)cnc4ccccc34)CC2)c(OC)c1
inactive: [13] 97 % of control | [14] 103 % of control | [15] 97 % of control

CC(=O)NCCCOc1ccc([N+](=O)[O-])cc1
inactive: [4] 101 % of control | [5] 91 % of control | [6] 92 % of control

CC(Cc1ccc(O)c(O)c1)C(C)Cc1ccc(O)c(O)c1 (configuration not stated)
inactive: [16] 98 % of control | [1] 100 % of control | [2] 96 % of control | [3] 100 % of control

O=C(CNC(=O)C1CCCN1Sc1ccc([N+](=O)[O-])cc1[N+](=O)[O-])NCC(=O)OCc1ccccc1 (configuration not stated)
inactive: [17] 98 % of control | [18] 103 % of control | [19] 98 % of control

CCc1cccc(CC)c1N=Cc1ccccc1O
inactive: dose: 100.0 mg/kg/injection, schedule: Q01DX009 (ip), vehicle: carboxymethylcellulose (CMC) 98 % of control and 102 % of control | dose: 100.0 mg/kg/injection, schedule: Q04DX002 (ip), vehicle: carboxymethylcellulose (CMC) 93 % of control and 101 % of control | dose: 100.0 mg/kg/injection, schedule: Q04DX003 (ip), vehicle: carboxymethylcellulose (CMC) 98 % of control | dose: 200.0 mg/kg/injection, schedule: Q01DX009 (ip), vehicle: carboxymethylcellulose (CMC) 93 % of control and 98 % of control | dose: 200.0 mg/kg/injection, schedule: Q04DX002 (ip), vehicle: carboxymethylcellulose (CMC) 96 % of control and 102 % of control | dose: 200.0 mg/kg/injection, schedule: Q04DX003 (ip), vehicle: carboxymethylcellulose (CMC) 102 % of control | dose: 400.0 mg/kg/injection, schedule: Q01DX009 (ip), vehicle: carboxymethylcellulose (CMC) 95 % of control | dose: 400.0 mg/kg/injection, schedule: Q04DX002 (ip), vehicle: carboxymethylcellulose (CMC) 93 % of control and 96 % of control | dose: 400.0 mg/kg/injection, schedule: Q04DX003 (ip), vehicle: carboxymethylcellulose (CMC) 104 % of control

O=[N+]([O-])c1ccc(P(=O)(O)O)cc1
inactive: [20] 103 % of control | [21] 101 % of control | [22] 107 % of control | [23] 115 % of control

O=C(NNc1ccccc1)Nc1ccccc1
inactive: [24] 107 % of control

CCCCCCCCCCCCC/C=N/Nc1nnc(N/N=C/CCCCCCCCCCCCC)c2ccccc12
inactive: [20] 106 % of control | [21] 106 % of control | [22] 109 % of control | [23] 118 % of control

C=C1C2C3CCC(C3)C2C(O)C2C3CCC(C3)C12 (configuration not stated)
inactive: dose: 50.0 mg/kg/injection, schedule: Q01DX009 (ip), vehicle: saline with Tween-80 96 % of control | [7] 93 % of control | [9] 93 % of control

CSc1nc2nc[nH]c(=O)c2cc1C#N
inactive: [17] 91 % of control | [18] 96 % of control | [19] 106 % of control

ClCCN(CCCl)c1ccc(C=NCCCN=Cc2ccc(N(CCCl)CCCl)cc2Cl)c(Cl)c1
inactive: [13] 97 % of control | [14] 92 % of control | [15] 95 % of control

NS(=O)(=O)c1ccc(NC(=O)Nc2cc([N+](=O)[O-])ccc2F)cc1
inactive: [4] 98 % of control | [5] 95 % of control | [6] 87 % of control

O=C(Nc1ccccc1F)Oc1ccc([N+](=O)[O-])cc1
inactive: [25] 106 % of control | dose: 50.0 mg/kg/injection, schedule: Q01DX009 (ip), vehicle: Klucel (hydroxypropylcellulose) (HPC) 95 % of control | [24] 94 % of control and 112 % of control

O=C(O)c1cccc(CCc2ccccc2)c1
inactive: [17] 102 % of control | [18] 100 % of control

COc1ccc(Cc2nccc3c(OC)c(OC)ccc23)cc1OC
inactive: dose: 25.0 mg/kg/injection, schedule: Q01DX009 (ip), vehicle: saline 98 % of control | dose: 25.0 mg/kg/injection, schedule: Q04DX003 (ip), vehicle: saline 107 % of control | [16] 102 % of control | dose: 50.0 mg/kg/injection, schedule: Q04DX003 (ip), vehicle: saline 93 % of control | [1] 93 % of control | [10] 96 % of control and 103 % of control | [11] 86 % of control

O=[N+]([O-])c1cccc(S(=O)(=O)NNc2c(Cl)cc(Cl)cc2Cl)c1
inactive: [4] 94 % of control | [5] 93 % of control | [6] 96 % of control

O=C(O)CNC(=S)SCc1ccccc1
inactive: dose: 100.0 mg/kg/injection, schedule: Q04DX002 (ip), vehicle: gum acacia 97 % of control | dose: 200.0 mg/kg/injection, schedule: Q04DX002 (ip), vehicle: gum acacia 87 % of control | dose: 400.0 mg/kg/injection, schedule: Q04DX002 (ip), vehicle: gum acacia 97 % of control

S=c1[nH]c(Cc2ccccc2)cs1
inactive: dose: 100.0 mg/kg/injection, schedule: Q01DX001 (sc), vehicle: carboxymethylcellulose (CMC) 103 % of control | dose: 200.0 mg/kg/injection, schedule: Q01DX001 (sc), vehicle: carboxymethylcellulose (CMC) 105 % of control | dose: 400.0 mg/kg/injection, schedule: Q01DX001 (sc), vehicle: carboxymethylcellulose (CMC) 103 % of control

CC(=O)OC(C)CN(C)C (configuration not stated)
inactive: [1] 103 % of control | [10] 103 % of control | [2] 100 % of control | [11] 105 % of control | [3] 100 % of control | [12] 93 % of control

CN(C)c1ccc(C=Nc2cc([N+](=O)[O-])ccc2O)cc1
inactive: [21] 96 % of control | [22] 92 % of control | [23] 91 % of control

CC(=O)NC(C)(C)CC(C)(C)C
inactive: dose: 12.5 mg/kg/injection, schedule: Q01DX009 (ip), vehicle: Klucel (hydroxypropylcellulose) (HPC) 99 % of control | dose: 12.5 mg/kg/injection, schedule: Q04DX003 (ip), vehicle: Klucel (hydroxypropylcellulose) (HPC) 98 % of control | dose: 25.0 mg/kg/injection, schedule: Q01DX001 (ip), vehicle: saline with Tween-80 98 % of control | [25] 101 % of control | dose: 25.0 mg/kg/injection, schedule: Q04DX003 (ip), vehicle: Klucel (hydroxypropylcellulose) (HPC) 96 % of control | dose: 50.0 mg/kg/injection, schedule: Q01DX001 (ip), vehicle: saline with Tween-80 103 % of control | dose: 50.0 mg/kg/injection, schedule: Q04DX003 (ip), vehicle: Klucel (hydroxypropylcellulose) (HPC) 93 % of control | dose: 100.0 mg/kg/injection, schedule: Q01DX001 (ip), vehicle: saline with Tween-80 105 % of control and 119 % of control
